{"source": "patent US20230124142A1", "about": "“NEW THERAPEUTIC TARGETS WITH AN ANTI-INFLAMMATORY AND ANTI-INTERFERON EFFECT” (UNIVERSITÉ PARIS CITÉ, priority 2020, published 2023)", "key": {"[1]": {"test_system": "human PBMCs", "experiment": "Interferons in supernatants of R848-stimulated PBMCs, STING-37 reporter cell line", "assay_type": "cell-based", "set-up": "dose or concentration left out as unconfirmed", "settings": "inhibitor 1 h before R848, 24 h, STING-37 reporter (FIG. 17A)"}, "[2]": {"test_system": "peripheral blood mononuclear cells (PBMCs)", "experiment": "Interferon production by cGAMP-activated PBMCs, STING-37 reporter cell line", "settings": "inhibitor 1 h before cGAMP 3 μg/ml, 24 h, STING-37 reporter (FIG. 22A, 23A)"}, "[3]": {"test_system": "B lymphocytes", "experiment": "CD69 expression and viability of B lymphocytes activated with CpG-A (TLR9 ligand), flow cytometry", "assay_type": "cell-based, human", "settings": "purified B lymphocytes, 24 h (FIG. 20)", "procedure": "(§1) The monocytes, T lymphocytes and B lymphocytes were cultured at 1·10^6/ml. […] The T lymphocytes were stimulated for 3 days with beads from the “Dynabeads human T activator CD3/CD28” kit from Thermo Fisher Scientific, following their instructions. […] The B lymphocytes were stimulated for 24 h with CpG-A t 1 μg/ml. […] The cells were rinsed in PBS then incubated with a viability dye (Zombie Aqua, Biolegend) for 30 min at ambient temperature. After washing, the cells were resuspended in PBS containing 2% SVF and 2 mM EDTA. For the monocytes, an intracellular labelling of TNFα, IL-6 and IL-1β, with the “Inside Stain” kit (Miltenyi Biotec) was used following the manufacturer's protocol. […] Data acquisition was carried out on the Attune N×T flow cytometer from Thermo Fisher. The FlowJo software was used to analyze the data. For the T lymphocytes, the cells were suspended in PBS containing 2% SVF and 2 mM EDTA then labelled with the PE anti-CD69 and APC anti-CD3 antibody from Miltenyi Biotec, used at 1/100°. After incubation for 30 min, the cells were rinsed in PBS containing 2% SVF and 2 mM EDTA. Data acquisition was carried out on the Attune N×T flow cytometer from Thermo Fisher. The FlowJo software was used to analyze the data. […]"}, "[4]": {"test_system": "NF-κB transcription factor", "experiment": "NF-κB transcription factor activity, supernatants of R848-stimulated PBMCs on THP1-Dual reporter line", "assay_type": "cell-based", "settings": "human PBMCs, inhibitor 1 h before R848, 24 h, QUANTI-Blue (FIG. 17B)", "procedure": "The monocytes, T lymphocytes and B lymphocytes were cultured at 1·10^6/ml. […] The T lymphocytes were stimulated for 3 days with beads from the “Dynabeads human T activator CD3/CD28” kit from Thermo Fisher Scientific, following their instructions. […] The B lymphocytes were stimulated for 24 h with CpG-A t 1 μg/ml. […] The activity of the NF-κB transcription factor was measured by means of the THP1-Dual reporter cell line from Invivogen. […] The activity of the NF-κB transcription factor was measured with QUANTI-Blue, a detection agent […], following the supplier's recommendations."}, "[5]": {"test_system": "peripheral blood mononuclear cells (PBMCs)", "experiment": "Cell toxicity on PBMCs, ATP quantification with CellTiter Glo", "assay_type": "cell-based, human", "settings": "cGAMP 24 h"}, "[6]": {"test_system": "THP1-Dual human monocyte cell line", "experiment": "Interferon response of cGAMP-activated THP1-Dual cells, luciferase", "settings": "inhibitor 1 h before cGAMP 3 μg/ml, 24 h, luciferase (FIG. 22B, 23B)"}, "[7]": {"test_system": "activated immune cells", "experiment": "Secretion of inflammatory cytokines and interferons by activated immune cells placed in contact with ROCK inhibitor", "assay_type": "cell-based", "settings": "compared with activated immune cells not placed in contact with the inhibitor"}, "[8]": {"test_system": "monocytes of healthy donors", "experiment": "Intracellular IL1β and TNFα in monocytes after inflammasome activation by uric acid crystals (MSU, gout model), flow cytometry", "assay_type": "cell-based, human", "settings": "activation of the inflammasome by uric acid crystals (mimicking gout)", "procedure": "The cells were rinsed in PBS then incubated with a viability dye (Zombie Aqua, Biolegend) for 30 min at ambient temperature. After washing, the cells were resuspended in PBS containing 2% SVF and 2 mM EDTA then labelled with the APC Vio770 anti-CD14 (clone REA599) antibody from Miltenyi Biotec, used at 1/100°. […] Data acquisition was carried out on the Canto II flow cytometer using the Diva software (BD Biosciences, San Jose, Calif.). The Kaluza software was used to analyze the data."}, "[9]": {"test_system": "PBMCs of patients suffering from juvenile idiopathic arthritis", "experiment": "Transcription of TNFα and IL-6 genes in PBMCs of juvenile idiopathic arthritis patients, RT-qPCR", "assay_type": "cell-based, human", "settings": "inhibitor at 1 μM for 16 h, RT-qPCR (FIG. 21)"}, "[10]": {"test_system": "monocytes of healthy donors", "experiment": "Intracellular TNFα production in monocytes after TLR7/8 (Resiquimod-R848) stimulation, flow cytometry", "assay_type": "cell-based, human", "settings": "inhibitor 1 h before R848 (TLR7/8), 16 h, flow cytometry (FIG. 1, 2)", "procedure": "The cells were rinsed in PBS then incubated with a viability dye (Zombie Aqua, Biolegend) for 30 min at ambient temperature. After washing, the cells were resuspended in PBS containing 2% SVF and 2 mM EDTA then labelled with the APC Vio770 anti-CD14 (clone REA599) antibody from Miltenyi Biotec, used at 1/100°. […] Data acquisition was carried out on the […] flow cytometer using the Diva software (BD Biosciences, San Jose, Calif.). The Kaluza software was used to analyze the data."}, "[11]": {"test_system": "immune cells (PBMCs and purified monocytes) of healthy donors", "experiment": "Production of inflammatory cytokines by PBMCs and purified monocytes after TLR2/4 stimulation by bacterial agents", "assay_type": "cell-based, human", "settings": "TLR 2/4 stimulation by lipoteichoic acid/LPS"}, "[12]": {"test_system": "monocytes of healthy donors", "experiment": "TNFα, IL-1β and IL-6 production and viability of R848-activated purified monocytes, flow cytometry", "assay_type": "cell-based, human", "procedure": "as §1"}, "[13]": {"test_system": "HEK293 non-immune cell line", "experiment": "Interferon production by cGAMP-activated HEK293 non-immune cells (STING-37), luciferase", "settings": "inhibitor at 1 and 5 μM (FIG. 22C)"}, "[14]": {"test_system": "peripheral blood mononuclear cells (PBMCs) of healthy donors", "experiment": "Secretion of inflammatory cytokines and interferons by PBMCs after TLR7/8 (R848) stimulation, LegendPlex", "settings": "human PBMCs incubated with inhibitor before R848 stimulation"}, "[15]": {"test_system": "T lymphocytes", "experiment": "CD69 expression and viability of T lymphocytes activated with CD3/CD28 beads, flow cytometry", "assay_type": "cell-based, human", "settings": "purified T lymphocytes, 3 days (FIG. 19)", "procedure": "as §1"}, "[16]": {"test_system": "THP1-Dual human monocyte cell line", "experiment": "Cell toxicity on THP1-Dual, ATP quantification with CellTiter Glo", "assay_type": "cell-based", "settings": "cGAMP 24 h"}, "[17]": {"test_system": "neurones infected by the prions", "assay_type": "cell-based"}}}
{"compound": "C[C@@H](N)[C@H]1CC[C@H](C(=O)Nc2ccncc2)CC1", "note": "[Y27632]", "values": [{"measurement": "production of IFN induced by the stimulation of TLR7/8", "setting": "[1]", "result": "inhibits"}, {"measurement": "production of interferons (IFN) induced by the cGAMP", "setting": "[2]", "result": "blocks the production of interferons (IFN) induced by the cGAMP according to a dosage effect starting from 1 μM"}, {"measurement": "viability of the B lymphocytes", "setting": "[3]; CpG-A", "result": "without affecting the viability"}, {"measurement": "expression of the CD69 marker at the surface of the B lymphocytes", "setting": "[3]; inhibitor at 1 μM, 1 h before CpG-A 1 μg/ml", "result": "inhibits, according to a dosage effect"}, {"measurement": "activation of the transcription factor of the NF-κB pathway induced by the stimulation of TLR7/8", "setting": "[4]", "result": "inhibits"}, {"measurement": "viability of the PBMCs", "setting": "[5]", "result": "without affecting the viability"}, {"measurement": "production of interferons (IFN) induced by the cGAMP", "setting": "[6]", "result": "blocks the production of interferons (IFN) induced by the cGAMP according to a dosage effect starting from 1 μM"}, {"measurement": "secretion of the inflammatory cytokines (TNFα, IL-1β, IL6, MCP1 (CCL2)) and of the interferons (IFN)", "setting": "[7]", "result": "inhibits the secretion"}, {"measurement": "production of inflammatory cytokines", "setting": "[8]", "result": "capable of inhibiting the production of inflammatory cytokines"}, {"measurement": "transcription of the genes encoding TNFα and IL-6", "setting": "[9]", "result": "inhibits the transcription"}, {"measurement": "intracellular production of inflammatory cytokines (TNFα)", "setting": "[10]", "result": "inhibits, according to a dosage effect"}, {"measurement": "production of inflammatory cytokines", "setting": "[11]", "result": "capable of inhibiting the production of inflammatory cytokines"}, {"measurement": "production of TNFα, IL-1β and IL-6 induced by R848", "setting": "[12]; inhibitor 1 h before R848 1 μg/ml, 6 h, flow cytometry (FIG. 18)", "result": "inhibits, according to a dosage effect"}, {"measurement": "viability of the monocytes", "setting": "[12]; inhibitor 1 h before R848, 6 h (FIG. 18)", "result": "without affecting the viability"}, {"measurement": "production of interferon induced by the STING ligand", "setting": "[13]", "result": "blocks in a limited manner"}, {"measurement": "production of TNFα and of pro-inflammatory cytokines such as IL-6, IL-1β and the interferons induced by the TLR7/8 stimulation", "setting": "[14]", "result": "inhibits the production"}, {"measurement": "viability of the T lymphocytes", "setting": "[15]; CD3/CD28 beads", "result": "without affecting the viability"}, {"measurement": "expression of the CD69 marker at the surface of the T lymphocytes", "setting": "[15]; inhibitor at 1 and 5 μM, 1 h before CD3/CD28 beads", "result": "inhibits, according to a dosage effect"}, {"measurement": "viability of the THP1-Dual", "setting": "[16]", "result": "without affecting the viability"}, {"measurement": "level of TNFα in the culture medium", "setting": "[17]", "result": "re-establishes a “normal” level"}]}
